Experimental data: patent publication EP0562849A2, “Steroid derivatives” (priority 1992, dated 1993)
Several values for one entry are separate records, joined by “and”; a condition that tells them apart may be missing. Identical values can stand only once. Like-named read-outs stand apart in the source and are kept apart here.

Tested on: human LDL receptor promoter
Test: in vitro Luciferase Activity Test (LDL receptor promoter-luciferase reporter in recombinant CHO cells)
Assay type: cell-based
Parameters: MED: unit not given here
Details: for Emax: Homo sapiens, CHO, read-out: MA%; for Emax / MA%: maximum activity (%) over control; for MED: minimum effective dose (molar concentration, unit not given), 24 hr, assay medium with 0.5 µg/ml 25-hydroxycholesterol; for RED: relative effective dose compared to compound of Example 4, below one = more active
Procedure: A 1546 base pair sequence of the human LDL receptor promoter was amplified using the polymerase chain reaction. A reaction mixture containing 20 pMoles each of the synthetic oligonucleotides 5'-[…]-3' (Seq. I.D. No: 1) and 5'-AAG-[…]-3', (Seq. I.D. No:2) 1 µg human genomic DNA purified from the adenocarcinoma cell line P3UCLA, 200 µM each of dATP, dGTP, dCTP, and TTP, 2.5 units of Taq DNA polymerase, 10mM Tris-HCI pH 8.3, 50 mM KCI, […], 0.1% gelatin in a final volume of 100 µl was subjected to 30 cycles of 15 sec at 96°C, 30 sec at 55°C, and 1 min at 72°C. The material was subject to gel electrophoresis on a 1% agarose gel and the 1546 base pair band was isolated and restriction enzyme digested with Hind III and Nde I. This fragment was ligated into the plasmid pSP72 (ProMega Biotech), which had previously been restriction enzyme nuclease digested with Hind III and Nde I. The resulting vector, pNLDLRP, was restriction endonulease digested with Ndel and Hind III and the material was again run on a 1% agarose gel to reisolate the 1546 bp LDL receptor sequence.
Plasmid vector PSv2 was constructed by digesting plasmid pSv2-globin with Hind III and Bgl II then ligating an Nrul-Xhol linker into the vector. Plasmid pSv2 globin is disclosed in U.S. Patent No. 4,775,624, the entire teaching of which is herein incorporated by reference. The linker contained the following sequences: [formula] (Seq. I.D. No: 3), and [formula] ' (Seq. I.D. No:4).
The resulting vector was designated pSv2-H NXB because it contained a […], an Nrul site, an Xhol site and a Bgl site. The Hind III-Bgl II fragment of plasmid pAlc4(NRRL B-18783), which contains the firefly luciferase gene, was then ligated into the Hin III-Bgl site of plasmid pSv2-HNXB. A neomycin resistance-conforming gene was then ligated into the Bam HI site of the resultant plasmid to form plasmid pSv2.
A 1546 base pair fragment was isolated and cloned into a Ndel and Hind III (partial) restriction digested vector pSv2 containing the firefly luciferase reporter gene and a gene for neomycin resistance. The resulting vector, pLDL-Luc1 Neo-10, contains the human LDL receptor promoter driving expression of the firefly luciferase gene, a gene coding for neomycin resistance, ampicillin resistant marker and an origin of replication.
Plasmid pLDL-Luc 1 Neo-10 was used to stably transfect Chinese Hamster Ovary cells using a Lipofection Reagent kit and procedure from Gibco BRL Research Products Division Life Technologies Inc. Transformants were selected by picking individual colonies grown in Dulbecco's modified Eagle's medium supplimented with 10% fetal bovine serum and containing 500 µg per ml […]. […] Clone S27/B30 was used for subsequent screening.
In developing a cell based screen it is important to have a negative control. The viral SV40 promoter is ideal for this purpose in that it has a number of SP1 elements that enhance gene transcription. These elements are not under the control of end product repression; but they do have a high degree of sequence homology with the 16 base pair long sterol response element found in the LDL receptor promoter. The SV40 promoter should therefore be a sensitive mechanism to screen out agents that induce nonspecific transcription.
Chinese Hamster Ovary cells were stably cotransfected with a vector pSV2AL-A 5' containing the SV40 promoter driving expression of the firefly luciferase gene and a second vector pSV2 NeoBam containing a neomycin resistant marker. Transfections were carried out using the Lipofectin Reagent kit and procedure from Gibco BRL Research Products Division Life Technologies Inc. Transformants were selected by picking individual colonies grown in Dulbecco's modified Eagle's medium supplemented with 10% fetal bovine serum and containing 500 µg per ml of geneticin. Individual clones were selected, lysed and assayed for luciferase production. […]

[1] = 15% luciferase activity cutoff point (footnote 2)
[2] = NA is not active, 30% luciferase activity cutoff point (footnote 1)
[3] = tests using 15% luciferase activity cutoff point (footnote 2)
[4] = tests using 30% luciferase activity cutoff point (footnote 1)
[5] = 30% luciferase activity cutoff point (footnote 1)

Compound	Emax [1] [%]	Emax [2] [%]	MED [3]	MED [4]	RED [1]	RED [5]	MA% [1]	MA% [2] [%]
C[C@H](CCCN(C)C)[C@H]1CC[C@H]2[C@@H]3CC[C@@H]4C[C@H](O)CC[C@]4(C)[C@H]3CC[C@]12C [Example 51, 3a-hydroxy-25-azacoprostane]	173	112	1.28	6.4	1.16	1.13		
C=CC[C@@H]1[C@H](O)CC[C@@]2(C)[C@H]1CC[C@@H]1[C@@H]2CC[C@]2(C)[C@@H]([C@H](C)/C=C/[C@@H](CC)C(C)C)CC[C@@H]12 [Example 98, (3a, 4a, 5a, 22E)-4-(2-propenyl)-stigmast-22-en-3-ol]		66		22		2.0		
[4a(E),5α]-4-(2-butenyl)-25-hydroxycholestan-3a-ol [Example 6]			21.7		0.96 and 1.90		72% and 67%	
C=CC[C@@H]1[C@H](O)CC[C@@]2(C)[C@H]1CC[C@@H]1[C@@H]2CC[C@]2(C)C(OCCCCCCCC)CC[C@@H]12 (stereo partly shown) [Example 65, (3a,4a,5a)-17-(octyloxy)-4-(2-propenyl)androstan-3-ol]			11.3 and 22.5					
C[C@H](CCCN(C)C)[C@H]1CC[C@H]2[C@@H]3CC[C@@H]4C[C@H](O)CC[C@]4(C)[C@H]3C[C@H](O)[C@]12C [Example 50, 3a, 12a-dihydroxy-25-azacoprostane]		81		6.2				92
C/C=C/C[C@@H]1C(=O)CC[C@]2(C)[C@H]3CC[C@]4(C)[C@@H]([C@H](C)CCCC(C)(C)O)CC[C@H]4[C@@H]3CC[C@@H]12 [Example 3, [4a(E),5a]-4-(2-butenyl)-25-hydroxycholestan-3-one]		144		2.2		0.97		
CCCC[C@@H]1[C@H](O)CC[C@@]2(C)[C@H]1CC[C@@H]1[C@@H]2CC[C@]2(C)[C@@H]([C@H](C)CCCC(C)C)CC[C@@H]12 [Example 7, [4a,5a]-4-butylcholestan-3a-ol]	46						30%	
CC(C)CCC[C@@H](C)[C@H]1CC[C@H]2[C@@H]3CCC4[C@H](Cc5ccc(OCc6ccccc6)cc5)[C@H](O)CC[C@]4(C)[C@H]3CC[C@]12C (stereo partly shown) [Example 32, 4a-(4-benzyloxybenzyl)cholestan-3a-ol]	36		8.6		3.8			
CC(C)CCC[C@@H](C)[C@H]1CC[C@H]2[C@@H]3CCC4[C@H](Cc5ccccc5)[C@H](O)CC[C@]4(C)[C@H]3CC[C@]12C (stereo partly shown) [Example 22, 4a-benzylcholestan-3a-ol]		18						
C=C(Cl)C[C@@H]1[C@H](O)CC[C@@]2(C)[C@H]1CC[C@@H]1[C@@H]2CC[C@]2(C)[C@@H]([C@H](C)CCCC(C)C)CC[C@@H]12 [Example 91, (3a,4a,5a)-4-(2-chloro-2-propenyl)cholestan-3-ol]		96		2.7		0.24		
C=C(Br)C[C@@H]1[C@H](O)CC[C@@]2(C)[C@H]1CC[C@@H]1[C@@H]2CC[C@]2(C)[C@@H]([C@H](C)CCCC(C)C)CC[C@@H]12 [Example 93, (3a,4a,5a)-4-(2-bromo-2-propenyl)cholestan-3-ol]		131		4.9		0.43		
